Data taken from PMC4975872 (Journal of biomolecular screening, 2014).
Like-named read-outs stand apart in the source and are kept apart here.

How the values were obtained:
[1] = test system: ERK/β-arrestin interaction; format: cell-based, human; conditions: antagonist 15 min, then 1 μM adrenaline for 90 min
[2] = test system: ERK/β-arrestin interaction; format: cell-based, human; conditions: inhibitor 15 min in serum-free DMEM, then 5% FBS for 90 min
S1P (endogenous GPCR) = format: cell-based, U2OS; conditions: read-out: EC50 values; n = 3
[3] = test system: ERK/β-arrestin interaction; conditions: 10 μM agonist, Fig. S5
[4] = test system: ERK/β-arrestin interaction; test: ERK/β-arrestin interaction LinkLight assay, RTK ligand responses; format: cell-based, human; conditions: endogenous RTKs in U2OS cells, serum-free DMEM, 90 min, 37°C
[5] = test system: ERK/β-arrestin interaction; test: ERK/β-arrestin interaction LinkLight assay, cytokine receptor response; format: cell-based, human; conditions: for S/B ratio: 0.1 μg/ml cytokine, Fig. S5; for EC50, stimulation of ERK/β-arrestin interaction signals by cytokines: endogenous cytokine receptors in U2OS cells, serum-free DMEM, 90 min, 37°C

CN(C)CCN(C)CCc1ccc(Cl)c(Cl)c1 [BD-1047]
inhibition of GPCR agonist-induced ERK/β-arrestin interaction signals [1]: inhibit

O=C(NOCC1CC1)c1ccc(F)c(F)c1Nc1ccc(I)cc1Cl [CI-1040]
inhibition of FBS-induced ERK/β-arrestin interaction signals [2]: did not block

O=C1Nc2ccc(I)cc2/C1=C/c1cc(Br)c(O)c(Br)c1 [GW5074]
inhibition of FBS-induced ERK/β-arrestin interaction signals [2]: did not block

CCCCCCCCCCCCC/C=C/[C@@H](O)[C@@H](N)COP(=O)(O)O [S1P, sphingosine 1-phosphate]
EC50 (S1P (endogenous GPCR)): 337 nM

CNC[C@H](O)c1ccc(O)c(O)c1 [adrenaline]
S/B ratio [3]: 3.78 fold

Cc1nc(Nc2ncc(C(=O)Nc3c(C)cccc3Cl)s2)cc(N2CCN(CCO)CC2)n1 [dasatinib]
inhibition of FBS-induced ERK/β-arrestin interaction signals [2]: blocked

NCCc1ccc(O)c(O)c1 [dopamine]
S/B ratio [3]: 3.66 fold

EGF: epidermal growth factor, RTK ligand
EC50, stimulation of luciferase signals by RTK ligands [4]: 3.75 ng/mL

FGF-b: growth factor FGF-basic, RTK ligand
EC50, stimulation of luciferase signals by RTK ligands [4]: 3.87 ng/mL

IL1β: recombinant human cytokine IL1β
S/B ratio [5]: 14.5 fold | EC50, stimulation of ERK/β-arrestin interaction signals by cytokines [5]: 2.8 ng/mL

TNFα
S/B ratio [5]: 8.99 fold | EC50, stimulation of ERK/β-arrestin interaction signals by cytokines [5]: 5.65 ng/mL
